Experimental findings from patent US20170197979A1, “BENZOTHIADIAZOLAMINES” (BAYER PHARMA AKTIENGESELLSCHAFT, priority 2014, published 2017) are described below.

The target of the assay is T1, human full-length MKNK1 (Homo sapiens, UniProt Q9BUB5, T385D).
T1 construct: GST (N); purchased Carna Biosciences 02-145; host or cells: insect cells (baculovirus expression system)
Put plainly: MKNK1 kinase high ATP assay (TR-FRET). Conditions: TR-FRET, high ATP (2 mM final), 15 min preincubation with enzyme, GST-MKNK1 (T344D); read-out: MKNK1 IC50. It counts as biochemical. How it is done: MKNK1 Kinase High ATP Assay
MKNK1-inhibitory activity at high ATP of compounds of the present invention after their preincubation with MKNK1 was quantified employing the TR-FRET-based MKNK1 high ATP assay as described in the following paragraphs.
A recombinant fusion protein of Glutathione-S-Transferase (GST, N-terminally) and human full-length MKNK1 (amino acids 1-424 and T344D of accession number BAA 19885.1), expressed in insect cells using baculovirus expression system and purified via glutathione sepharose affinity chromatography, was purchased from Carna Biosciences (product no 02-145) and used as enzyme. As substrate for the kinase reaction the biotinylated peptide biotin-Ahx-IKKRKLTRRKSLKG (C-terminus in amide form) was used, which can be purchased e.g. from the company Biosyntan (Berlin-Buch, Germany).
For the assay 50 nL of a 100 fold concentrated solution of the test compound in DMSO was pipetted into a black low volume 384 well microtiter plate (Greiner Bio-One, Frickenhausen, Germany), 2 μL of a solution of MKNK1 in aqueous assay buffer [50 mM HEPES pH 7.5, 5 mM MgCl2, 1.0 mM dithiothreitol, 0.005% (v/v) Nonidet-P40 (Sigma)] was added and the mixture was incubated for 15 min at 22° C. to allow pre-binding of the test compounds to the enzyme before the start of the kinase reaction. Then the kinase reaction was started by the addition of 3 μL of a solution of adenosine-tri-phosphate (ATP, 3.3 mM=>final conc. in the 5 μL assay volume is 2 mM) and substrate (0.1 μM=>final conc. in the 5 μL assay volume is 0.06 μM) in assay buffer and the resulting mixture was incubated for a reaction time of 30 min at 22° C. The concentration of MKNK1 was adjusted depending of the activity of the enzyme lot and was chosen appropriate to have the assay in the linear range, typical concentrations were in the range of 0.003 μg/mL. The reaction was stopped by the addition of 5 μL of a solution of TR-FRET detection reagents (5 nM streptavidine-XL665 [Cisbio Bioassays, Codolet, France] and 1 nM anti-ribosomal protein S6 (pSer236)-antibody from Invitrogen [#44921G] and 1 nM LANCE EU-W1024 labeled ProteinG [Perkin-Elmer, product no. AD0071]) in an aqueous EDTA-solution (100 mM EDTA, 0.1% (w/v) bovine serum albumin in 50 mM HEPES pH 7.5).
The resulting mixture was incubated for 1 h at 22° C. to allow the formation of complex between the phosphorylated biotinylated peptide and the detection reagents. Subsequently the amount of phosphorylated substrate was evaluated by measurement of the resonance energy transfer from the Eu-chelate to the streptavidine-XL. Therefore, the fluorescence emissions at 620 nm and 665 nm after excitation at 350 nm were measured in a TR-FRET reader, e.g. a Rubystar (BMG Labtechnologies, Offenburg, Germany) or a Viewlux (Perkin-Elmer). The ratio of the emissions at 665 nm and at […] was taken as the measure for the amount of phosphorylated substrate. The data were normalised (enzyme reaction without inhibitor=0% inhibition, all other assay components but no enzyme=100% inhibition).

T1 sequence (Q9BUB5 1-424 isoform Q9BUB5-2 T344D): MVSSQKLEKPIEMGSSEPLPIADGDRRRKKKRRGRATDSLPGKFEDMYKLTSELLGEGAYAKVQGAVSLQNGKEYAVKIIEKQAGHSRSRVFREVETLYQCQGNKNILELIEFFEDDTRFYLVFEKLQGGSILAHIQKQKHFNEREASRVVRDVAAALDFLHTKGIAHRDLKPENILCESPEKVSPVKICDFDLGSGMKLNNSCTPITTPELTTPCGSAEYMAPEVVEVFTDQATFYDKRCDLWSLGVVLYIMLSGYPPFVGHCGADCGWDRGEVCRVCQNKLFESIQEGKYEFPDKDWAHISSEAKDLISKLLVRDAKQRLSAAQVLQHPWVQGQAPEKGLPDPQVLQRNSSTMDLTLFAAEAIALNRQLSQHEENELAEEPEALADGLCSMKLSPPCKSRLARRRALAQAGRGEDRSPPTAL

What is called IC50 is the concentration at which inhibition is half-maximal. For the molecule `CC(C)N(C)C(=O)[C@H]1CCc2c(sc3ncnc(Nc4ccc5nnsc5c4)c23)C1` [Example 23, (7S)-4-(1,2,3-Benzothiadiazol-6-ylamino)-N-methyl-N-(propan-2-yl)-5,6,7,8-tetrahydro[1]benzothieno[2,3-d]pyrimidine-7-carboxamide], the IC50 was determined as 41 nM.
In the case of `O=C([C@H]1CCc2c(sc3ncnc(Nc4ccc5nnsc5c4)c23)C1)N1CCC1` [Example 24, Azetidin-1-yl[(7S)-4-(1,2,3-benzothiadiazol-6-ylamino)-5,6,7,8-tetrahydro[1]benzothieno[2,3-d]pyrimidin-7-yl]methanone], the IC50 was 33 nM.
As to `CN(CCN)C(=O)[C@H]1CCc2c(sc3ncnc(Nc4ccc5nnsc5c4)c23)C1` [Example 25, (7S)—N-(2-Aminoethyl)-4-(1,2,3-benzothiadiazol-6-ylamino)-N-methyl-5,6,7,8-tetrahydro[1]benzothieno[2,3-d]pyrimidine-7-carboxamide], the IC50 came to 3.2 nM.
With `CN(CC(F)F)C(=O)[C@H]1CCc2c(sc3ncnc(Nc4ccc5nnsc5c4)c23)C1` [Example 26, (7S)-4-(1,2,3-Benzothiadiazol-6-ylamino)-N-(2,2-difluoroethyl)-N-methyl-5,6,7,8-tetrahydro[1]benzothieno[2,3-d]pyrimidine-7-carboxamide], the IC50 is 11 nM.
In the case of `CN(CC(C)(C)O)C(=O)[C@H]1CCc2c(sc3ncnc(Nc4ccc5nnsc5c4)c23)C1` [Example 27, (7S)-4-(1,2,3-Benzothiadiazol-6-ylamino)-N-(2-hydroxy-2-methylpropyl)-N-methyl-5,6,7,8-tetrahydro[1]benzothieno[2,3-d]pyrimidine-7-carboxamide], the IC50 worked out at 15 nM.
As for `CCN(CCO)C(=O)[C@H]1CCc2c(sc3ncnc(Nc4ccc5nnsc5c4)c23)C1` [Example 28, (7S)-4-(1,2,3-Benzothiadiazol-6-ylamino)-N-ethyl-N-(2-hydroxyethyl)-5,6,7,8-tetrahydro[1]benzothieno[2,3-d]pyrimidine-7-carboxamide], the IC50 turned out to be 8.6 nM.
For `CN(C)C(=O)CN(C)C(=O)[C@H]1CCc2c(sc3ncnc(Nc4ccc5nnsc5c4)c23)C1` [Example 29, (7S)-4-(1,2,3-Benzothiadiazol-6-ylamino)-N-[2-(dimethylamino)-2-oxoethyl]-N-methyl-5,6,7,8-tetrahydro[1]benzothieno[2,3-d]pyrimidine-7-carboxamide], the IC50 worked out at 7 nM.
Under `CN(C)CCCN(C)C(=O)[C@H]1CCc2c(sc3ncnc(Nc4ccc5nnsc5c4)c23)C1` [Example 30, (7S)-4-(1,2,3-Benzothiadiazol-6-ylamino)-N-[3-(dimethylamino)propyl]-N-methyl-5,6,7,8-tetrahydro[1]benzothieno[2,3-d]pyrimidine-7-carboxamide] stands 8.1 nM; under `O=C([C@H]1CCc2c(sc3ncnc(Nc4ccc5nnsc5c4)c23)C1)N1CC(F)(F)C1` [Example 31, [(7S)-4-(1,2,3-Benzothiadiazol-6-ylamino)-5,6,7,8-tetrahydro[1]benzothieno[2,3-d]pyrimidin-7-yl](3,3-difluoroazetidin-1-yl)methanone], 14 nM; under `O=C([C@H]1CCc2c(sc3ncnc(Nc4ccc5nnsc5c4)c23)C1)N1CC(O)C1` [Example 32, [(7S)-4-(1,2,3-Benzothiadiazol-6-ylamino)-5,6,7,8-tetrahydro[1]benzothieno[2,3-d]pyrimidin-7-yl](3-hydroxyazetidin-1-yl)methanone], 33 nM.
Consider `CC1(O)CN(C(=O)[C@H]2CCc3c(sc4ncnc(Nc5ccc6nnsc6c5)c34)C2)C1` [Example 33, [(7S)-4-(1,2,3-Benzothiadiazol-6-ylamino)-5,6,7,8-tetrahydro[1]benzothieno[2,3-d]pyrimidin-7-yl](3-hydroxy-3-methylazetidin-1-yl)methanone], for which the IC50 came out at 8 nM.
